From patent US6869959B1, “Heterocyclic carboxylic acid derivatives” (Institute of Medicinal Molecular Design Inc., priority 1999, dated 2005) come the findings set out here.

The test system of data set [1] is promyelocytic leukemia cell stain HL-60. The data set is described as follows: Effect on cell differentiation-inducing action of co-existing retinoid Am80 in HL-60 cell. Format: cell-based. As to conditions: HL-60, NBT reduction. The source says: (§1) By using the above compounds, cell differentiation-inducing activity of each compound alone, and effect on cell differentiation-inducing action of a co-existing retinoid were examined. As a comparative and co-existing retinoid, Am80: 4-[(5,6,7,8-tetrahydro-5,5,8,8-tetramethyl-2-naphthalenyl)carbamoyl]benzoic acid (1×10^−10 M) was used. According to the method described in Japanese Patent Unexamined Publication (KOKAI) No.(Sho)61-76440/1986, promyelocytic leukemia cell stain HL-60 was used, and differentiation into granulocytic cells was determined by observing morphological change and measuring ability to reduce nitroblue tetrazolium (NBT). The ratios of differentiated cells shown in the following table were calculated from the ability of reducing NBT.

Data set [2] has the same test system. The data set is described as follows: Cell differentiation-inducing activity test in HL-60 cell, each compound alone. It counts as cell-based. To be noted: HL-60, NBT reduction.
From the text: as §1

The structures appear in SMILES notation.

`CCCN(c1ccc2c(c1)C(C)(C)CCC2(C)C)c1ncc(C(=O)O)cn1` [Compound 3]: the “Ratio of differentiated cells by each compound co-existing with 1 × 10^−10 M Am80 (%)” value is given as 89% in data set [1] (compound concentration 10^−7 M + 1 × 10^−10 M Am80); 87% in data set [1] (compound concentration 10^−8 M + 1 × 10^−10 M Am80); 90% in data set [1] (compound concentration 10^−9 M + 1 × 10^−10 M Am80); 60% in data set [1] (compound concentration 10^−10 M + 1 × 10^−10 M Am80); 27% in data set [1] (compound concentration 10^−11 M + 1 × 10^−10 M Am80). Further, the “Ratio of differentiated cells by each compound alone (%)” value in data set [2] (compound concentration 10^−6 M) is 16%; in data set [2] (compound concentration 10^−7 M) it was 14%; in data set [2] (compound concentration 10^−8 M), 9%.
As to `Cc1cc2c(cc1Nc1ncc(C(=O)O)cn1)C(C)(C)CCC2(C)C` [Compound 5, 2-[N-(5,6,7,8-Tetrahydro-3,5,5,8,8-pentamethylnaphthalen-2-yl)amino]pyrimidine-5-carboxylic Acid], the melting point stood at 267 °C.
Consider `CCCN(c1ncc(C(=O)O)cn1)c1cc2c(cc1C)C(C)(C)CCC2(C)C` [Compound 7, 2-[N-n-Propyl-N-(5,6,7,8-tetrahydro-3,5,5,8,8-pentamethyl-naphthalen-2-yl)amino]pyrimidine-5-carboxylic Acid], for which the melting point was found to be 193 °C.
Turning to `Cc1cc2c(cc1N(CC1CC1)c1ncc(C(=O)O)cn1)C(C)(C)CCC2(C)C` [Compound 8, 2-[N-Cyclopropylmethyl-N-(5,6,7,8-tetrahydro-3,5,5,8,8-pentamethylnaphthalen-2-yl)amino]pyrimidine-5-carboxylic Acid], the melting point worked out at 123 °C.
Take `CN(c1cc(C(C)(C)C)cc(C(C)(C)C)c1)c1ncc(C(=O)O)cn1` [Compound 9, 2-[N-(3,5-Di-tert-butylphenyl)-N-methylamino] pyrimidine-5-carboxylic Acid]: the melting point was 261 to 263 °C.
For `CCCN(c1ncc(C(=O)O)cn1)c1cc(C(C)(C)C)ccc1C(C)(C)C` [Compound 11, 2-[N-(3,6-Di-tert-butylphenyl)-N-n-propylamino]pyrimidine-5-carboxylic Acid], the melting point was determined as 219 °C.
With `CC(C)(C)c1cc(N(CC2CC2)c2ncc(C(=O)O)cn2)cc(C(C)(C)C)c1` [Compound 12, 2-[N-Cyclopropylmethyl-N-(3,5-di-tert-butylphenyl)-amino]pyrimidine5-carboxylic Acid], the melting point was found to be 194 °C.

The term melting point denotes the temperature of the solid-liquid transition.
